{"source": "paper PMC3944923", "about": "“Intestinal Transportations of Main Chemical Compositions of Polygoni Multiflori Radix in Caco-2 Cell Model” (Evidence-based Complementary and Alternative Medicine : eCAM, 2014)", "key": {"Caco-2 cell monolayer": {"system": "Caco-2 cell monolayer", "assay": "Caco-2 cell monolayer transport (absorption, AP → BL), HPLC-DAD", "conditions": "for recovery rate (in words): Caco-2 assay; for absorption by human intestinal epithelial cells, judged from P app against atenolol and propranolol: Caco-2 monolayer, AP → BL"}, "[1]": {"assay": "Caco-2 cell monolayer transport (absorption, AP → BL), HPLC-DAD", "conditions": "human"}, "[2]": {"conditions": "Caco-2, Recovery rate, total compound in donor and receiver at end / initial compound, Caco-2, 90 min, Mean ± SD, n ≥ 3"}}, "note": "“Also recorded” adds a separate entry of the source.", "data": [{"smiles": "OC[C@H]1O[C@@H](Oc2c(O)cc(O)cc2/C=C/c2ccc(O)cc2)[C@H](O)[C@@H](O)[C@@H]1O", "note": "[TSG, 2,3,5,4′-tetrahydroxystilbene-2-O-β-D-glucoside]", "values": [{"measurement": "recovery rate (in words)", "setting": "Caco-2 cell monolayer", "value": "poor recovery rates; also recorded: low recovery rates"}, {"measurement": "absorption by human intestinal epithelial cells, judged from P app against atenolol and propranolol", "setting": "Caco-2 cell monolayer", "value": "hardly absorbed; also recorded: poorly absorbed"}, {"measurement": "Papp at 1.5 h", "setting": "[1]; Caco-2", "value": 0.00237, "unit": "×10⁻⁶ cm/s"}, {"measurement": "recovery at 1.5 h", "setting": "[1]; [2]", "value": "17.4 ± 1.6", "unit": "%"}]}, {"smiles": "O=C1c2cccc(O)c2C(=O)c2c(O)cc(CO)cc21", "note": "[AE, aloe-emodin]", "values": [{"measurement": "absorption by human intestinal epithelial cells, judged from P app against atenolol and propranolol", "setting": "Caco-2 cell monolayer", "value": "partly absorbed"}, {"measurement": "Papp at 1.5 h", "setting": "[1]; Caco-2", "value": 0.0195, "unit": "×10⁻⁶ cm/s"}, {"measurement": "recovery at 1.5 h", "setting": "[1]; Caco-2", "value": "42.4 ± 6.32", "unit": "%"}]}, {"smiles": "Oc1ccc(/C=C/c2cc(O)cc(O)c2)cc1", "note": "[RL, resveratrol]", "values": [{"measurement": "absorption by human intestinal epithelial cells, judged from P app against atenolol and propranolol", "setting": "Caco-2 cell monolayer", "value": "partly absorbed"}, {"measurement": "Papp at 1.5 h", "setting": "[1]; Caco-2", "value": 0.0178, "unit": "×10⁻⁶ cm/s"}, {"measurement": "recovery at 1.5 h", "setting": "[1]; [2]", "value": "62.4 ± 6.21", "unit": "%"}]}, {"smiles": "Cc1cc(O)c2c(c1)C(=O)c1cc(O)cc(O)c1C2=O", "note": "[EN, emodin]", "values": [{"measurement": "recovery rate (in words)", "setting": "Caco-2 cell monolayer", "value": "poor recovery rates; also recorded: low recovery rates"}, {"measurement": "Papp at 1.5 h", "setting": "[1]; Caco-2", "value": 0.00248, "unit": "×10⁻⁶ cm/s"}, {"measurement": "recovery at 1.5 h", "setting": "[1]; Caco-2", "value": "14.5 ± 2.5", "unit": "%"}]}, {"smiles": "CC(C)NCC(O)COc1cccc2ccccc12", "note": "(stereo not drawn) [PR, Propranolol, reference compound]", "values": [{"measurement": "Papp at 1.5 h", "setting": "[1]; Caco-2", "value": 0.0607, "unit": "×10⁻⁶ cm/s"}, {"measurement": "recovery at 1.5 h", "setting": "[1]; [2]", "value": "~100", "unit": "%"}]}, {"smiles": "OC[C@H]1O[C@@H](Oc2cc(O)cc(/C=C/c3ccc(O)cc3)c2)[C@H](O)[C@@H](O)[C@@H]1O", "note": "[PL, polydatin]", "values": [{"measurement": "absorption by human intestinal epithelial cells, judged from P app against atenolol and propranolol", "setting": "Caco-2 cell monolayer", "value": "hardly absorbed"}, {"measurement": "Papp at 1.5 h", "setting": "[1]; Caco-2", "value": 0.00492, "unit": "×10⁻⁶ cm/s"}, {"measurement": "recovery at 1.5 h", "setting": "[1]; [2]", "value": "59.9 ± 9.9", "unit": "%"}]}, {"smiles": "O=C(O)c1cc(O)c2c(c1)C(=O)c1cccc(O)c1C2=O", "note": "[RN, rhein]", "values": [{"measurement": "absorption by human intestinal epithelial cells, judged from P app against atenolol and propranolol", "setting": "Caco-2 cell monolayer", "value": "partly absorbed"}, {"measurement": "Papp at 1.5 h", "setting": "[1]; Caco-2", "value": 0.0171, "unit": "×10⁻⁶ cm/s"}, {"measurement": "recovery at 1.5 h", "setting": "[1]; [2]", "value": "~100", "unit": "%"}]}]}
